According to ChEMBL document CHEMBL5120922, “Discovery, Optimization, and Evaluation of Potent and Selective PI3Kδ-γ Dual Inhibitors for the Treatment of B-cell Malignancies” (J Med Chem, 2022):
Activity calls are given as the source filed them. The calls are words filed in the database; no cut-off is given here.

Experiments:
[1] = Cmax in Sprague-Dawley rat at 5 mg/kg, po measured upto 24 hrs by LC-MS/MS analysis; format: ADME, organism-based; parameters: dose 5 mg/kg, time < 24 hrs, route po; details: in vivo
SU-DHL-6 [2] = experiment: Antitumor activity against human SU-DHL-6 cells xenografted in NOD/SCID mouse assessed as reduction in tumor weight at 10 mg/kg, po measured every 2 days in presence of ibrutinib; format: functional, organism-based; details: time 2.0 day
[3] = target: Phosphatidylinositol 4,5-bisphosphate 3-kinase catalytic subunit beta isoform (Homo sapiens, UniProt P42338); experiment: Inhibition of N-terminal His6-tagged recombinant full length human PI3Kbeta expressed in baculovirus infected Sf21 insect cells incubated for 30 mins by HTRF assay
DOHH-2 [4] = experiment: Induction of apoptosis in human DOHH-2 cells assessed as late apoptotic cells at 2 uM incubated for 48 hrs by annexin V-FITC and PI staining based flow cytometry analysis (reference value: 2.20 %); format: functional
SU-DHL-6 [5] = experiment: Induction of cell cycle arrest in human SU-DHL-6 cells assessed as accumulation of cells at S phase at 0.5 uM incubated for 24 hrs by PI staining based FACScan flow cytometry analysis (reference value: 24.18 %); format: functional
SU-DHL-6 [6] = experiment: Induction of apoptosis in human SU-DHL-6 cells assessed as late apoptotic cells at 1.5 uM incubated for 48 hrs in presence of ibrutinib by annexin V-FITC and PI staining based flow cytometry analysis (reference value: 3.88 %); format: functional
[7] = Oral bioavailability in Sprague-Dawley rat at 10 mg/kg measured upto 24 hrs by LC-MS/MS analysis; format: ADME, organism-based; details: in vivo
Homo sapiens = organism: Homo sapiens; experiment: Selectivity ratio of IC50 for N-terminal His6-tagged recombinant full length human PI3Kbeta expressed in baculovirus infected Sf21 insect cells to IC50 for N-terminal His6-tagged recombinant full length human PI3Kgamma expressed in baculovirus infected Sf21 insect cells
[8] = Selectivity ratio of IC50 for human 786-O cells over expressing PI3Kbeta to IC50 for human SU-DHL-6 cells; format: functional
[9] = Binding affinity to N-terminal His6-tagged recombinant full length human PI3K expressed in baculovirus infected Sf21 insect cells at 10 uM in presence of [gamma-33ATP] by scintillation counting based radiometry assay relative to control
[10] = Half life in Sprague-Dawley rat at 2 mg/kg, iv measured upto 24 hrs by LC-MS/MS analysis; format: ADME, organism-based; details: in vivo
DOHH-2 [11] = experiment: Induction of apoptosis in human DOHH-2 cells assessed as early apoptotic cells at 2 uM incubated for 48 hrs by annexin V-FITC and PI staining based flow cytometry analysis (reference value: 2.09 %); format: functional
[12] = Half life in Sprague-Dawley rat at 5 mg/kg, po measured upto 24 hrs by LC-MS/MS analysis; format: ADME, organism-based; details: in vivo
[13] = Selectivity ratio of IC50 for human SKOV-3 cells over expressing PI3Kalpha to IC50 for human SUDHL-6 cells; format: functional
[14] = Half life in Sprague-Dawley rat at 10 mg/kg, po measured upto 24 hrs by LC-MS/MS analysis; format: ADME, organism-based; details: in vivo
[15] = AUC(0 to t) in Sprague-Dawley rat at 5 mg/kg, po measured upto 24 hrs by LC-MS/MS analysis; format: ADME, organism-based; parameters: dose 5 mg/kg, time < 24 hrs, route po; details: in vivo
SU-DHL-6 [16] = experiment: Antitumor activity against human SU-DHL-6 cells xenografted in po dosed NOD/SCID mouse assessed as tumor volume suppression measured every 2 days; format: functional, organism-based; details: time 2.0 day, DDE = dose-dependent effect
SU-DHL-6 [17] = experiment: Induction of apoptosis in human SU-DHL-6 cells assessed as viable cells at 1.5 uM incubated for 48 hrs by annexin V-FITC and PI staining based flow cytometry analysis (reference value: 87.0 %); format: functional; details: read-out: Activity
[18] = Clearance in Sprague-Dawley rat at 2 mg/kg, iv measured upto 24 hrs by LC-MS/MS analysis; format: ADME, organism-based; details: in vivo
[19] = target: Phosphatidylinositol 4,5-bisphosphate 3-kinase catalytic subunit gamma isoform (Homo sapiens, UniProt P48736); experiment: Inhibition of N-terminal His6-tagged recombinant full length human PI3Kgamma expressed in baculovirus infected Sf21 insect cells incubated for 30 mins by HTRF assay
[20] = Cmax in Sprague-Dawley rat at 10 mg/kg, po measured upto 24 hrs by LC-MS/MS analysis; format: ADME, organism-based; parameters: dose 10 mg/kg, time < 24 hrs, route po; details: in vivo
SU-DHL-6 [21] = experiment: Induction of apoptosis in human SU-DHL-6 cells assessed as necrotic cells at 1.5 uM incubated for 48 hrs by annexin V-FITC and PI staining based flow cytometry analysis (reference value: 0.32%); format: functional
[22] = AUC(0 to t) in Sprague-Dawley rat at 10 mg/kg, po measured upto 24 hrs by LC-MS/MS analysis; format: ADME, organism-based; parameters: dose 10 mg/kg, time < 24 hrs, route po; details: in vivo
SU-DHL-6 [23] = experiment: Induction of apoptosis in human SU-DHL-6 cells assessed as viable cells at 1.5 uM incubated for 48 hrs in presence of ibrutinib by annexin V-FITC and PI staining based flow cytometry analysis (reference value: 87.0 %); format: functional; details: read-out: Activity
SU-DHL-6 [24] = experiment: Induction of apoptosis in human SU-DHL-6 cells assessed as late apoptotic cells at 1.5 uM incubated for 48 hrs by annexin V-FITC and PI staining based flow cytometry analysis (reference value: 3.88 %); format: functional
[25] = Tmax in Sprague-Dawley rat at 5 mg/kg, po measured upto 24 hrs by LC-MS/MS analysis; format: ADME, organism-based; details: in vivo
[26] = Cmax in Sprague-Dawley rat at 5 mg/kg, iv measured upto 24 hrs by LC-MS/MS analysis; format: ADME, organism-based; parameters: time < 24 hrs, dose 5 mg/kg, route iv; details: in vivo
DOHH-2 [27] = experiment: Induction of cell cycle arrest in human DOHH-2 cells assessed as accumulation of cells at G0/G1 phase at 0.5 uM incubated for 24 hrs in presence of ibrutinib by PI staining based flow cytometry analysis (reference value: 23.47 %); format: functional
DOHH-2 [28] = experiment: Induction of apoptosis in human DOHH-2 cells assessed as late apoptotic cells at 2 uM incubated for 48 hrs in presence of ibrutinib by annexin V-FITC and PI staining based flow cytometry analysis (reference value: 2.20 %); format: functional
SU-DHL-6 [29] = experiment: Induction of apoptosis in human SU-DHL-6 cells assessed as early apoptotic cells at 1.5 uM incubated for 48 hrs by annexin V-FITC and PI staining based flow cytometry analysis (reference value: 8.81 %); format: functional
[30] = Volume of distribution at steady state in Sprague-Dawley rat at 5 mg/kg, iv measured upto 24 hrs by LC-MS/MS analysis; format: ADME, organism-based; details: in vivo, read-out: Vdss
DOHH-2 [31] = experiment: Induction of cell cycle arrest in human DOHH-2 cells assessed as accumulation of cells at G2/M phase at 0.5 uM incubated for 24 hrs by PI staining based flow cytometry analysis (reference value: 21.42 %); format: functional

Chain of Phosphatidylinositol 4,5-bisphosphate 3-kinase catalytic subunit beta isoform (P42338 whole entry, canonical isoform): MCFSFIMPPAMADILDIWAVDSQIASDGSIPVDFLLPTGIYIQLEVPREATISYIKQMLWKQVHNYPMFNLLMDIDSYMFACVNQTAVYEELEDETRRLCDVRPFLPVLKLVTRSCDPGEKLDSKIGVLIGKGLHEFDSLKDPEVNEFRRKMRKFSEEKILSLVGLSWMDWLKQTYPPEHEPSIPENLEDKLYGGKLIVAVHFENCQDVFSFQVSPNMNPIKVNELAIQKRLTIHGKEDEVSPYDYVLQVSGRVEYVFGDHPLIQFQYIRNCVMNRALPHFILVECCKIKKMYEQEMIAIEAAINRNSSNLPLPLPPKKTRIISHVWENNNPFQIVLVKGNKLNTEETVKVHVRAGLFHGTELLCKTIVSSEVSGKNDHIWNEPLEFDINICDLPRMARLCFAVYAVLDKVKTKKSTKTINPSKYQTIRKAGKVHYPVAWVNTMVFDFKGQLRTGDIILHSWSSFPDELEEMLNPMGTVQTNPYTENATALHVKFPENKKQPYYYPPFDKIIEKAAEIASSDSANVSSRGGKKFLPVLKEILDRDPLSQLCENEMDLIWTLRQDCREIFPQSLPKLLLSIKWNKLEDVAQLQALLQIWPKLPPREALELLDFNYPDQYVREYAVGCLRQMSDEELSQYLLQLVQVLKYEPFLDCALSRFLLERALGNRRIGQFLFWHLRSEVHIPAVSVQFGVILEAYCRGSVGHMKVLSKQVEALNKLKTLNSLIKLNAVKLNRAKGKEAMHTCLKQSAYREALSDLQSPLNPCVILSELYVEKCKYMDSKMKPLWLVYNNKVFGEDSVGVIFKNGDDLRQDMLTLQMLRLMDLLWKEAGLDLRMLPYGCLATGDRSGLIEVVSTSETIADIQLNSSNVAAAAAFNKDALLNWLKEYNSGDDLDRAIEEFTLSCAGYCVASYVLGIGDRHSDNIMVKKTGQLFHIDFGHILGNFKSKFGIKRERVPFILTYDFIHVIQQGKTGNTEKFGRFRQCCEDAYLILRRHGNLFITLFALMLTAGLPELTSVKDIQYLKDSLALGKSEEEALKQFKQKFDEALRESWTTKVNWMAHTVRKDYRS
Chain of Phosphatidylinositol 4,5-bisphosphate 3-kinase catalytic subunit gamma isoform (P48736 whole entry, canonical isoform): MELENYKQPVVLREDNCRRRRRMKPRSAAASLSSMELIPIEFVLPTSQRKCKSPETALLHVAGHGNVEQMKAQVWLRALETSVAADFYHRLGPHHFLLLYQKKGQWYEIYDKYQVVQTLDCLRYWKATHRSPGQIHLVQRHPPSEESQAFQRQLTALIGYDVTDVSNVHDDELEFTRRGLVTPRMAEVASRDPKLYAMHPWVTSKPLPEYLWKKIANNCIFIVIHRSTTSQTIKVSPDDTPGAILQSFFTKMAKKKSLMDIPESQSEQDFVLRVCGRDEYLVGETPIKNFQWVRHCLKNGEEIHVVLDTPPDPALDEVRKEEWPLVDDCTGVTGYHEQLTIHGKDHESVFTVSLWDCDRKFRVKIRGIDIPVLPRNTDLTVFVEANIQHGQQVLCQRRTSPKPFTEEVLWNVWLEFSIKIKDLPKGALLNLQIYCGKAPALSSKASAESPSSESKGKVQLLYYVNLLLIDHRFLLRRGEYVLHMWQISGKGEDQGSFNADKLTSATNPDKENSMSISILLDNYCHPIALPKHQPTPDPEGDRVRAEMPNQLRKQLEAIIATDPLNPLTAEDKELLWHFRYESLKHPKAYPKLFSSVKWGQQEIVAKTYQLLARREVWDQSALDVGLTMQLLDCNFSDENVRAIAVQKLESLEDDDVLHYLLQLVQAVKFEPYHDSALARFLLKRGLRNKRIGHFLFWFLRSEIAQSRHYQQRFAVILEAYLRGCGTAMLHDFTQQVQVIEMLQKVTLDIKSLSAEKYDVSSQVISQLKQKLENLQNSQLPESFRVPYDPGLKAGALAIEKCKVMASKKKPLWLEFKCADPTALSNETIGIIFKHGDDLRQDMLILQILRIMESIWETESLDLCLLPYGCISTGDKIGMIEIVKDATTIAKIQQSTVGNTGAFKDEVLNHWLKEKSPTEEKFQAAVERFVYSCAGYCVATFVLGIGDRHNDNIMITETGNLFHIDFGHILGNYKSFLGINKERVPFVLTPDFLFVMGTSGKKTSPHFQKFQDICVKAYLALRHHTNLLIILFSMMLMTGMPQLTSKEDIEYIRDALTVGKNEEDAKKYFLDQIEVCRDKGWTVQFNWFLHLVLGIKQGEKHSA

Cmax [1]: 3640 ng/mL | IC50 [3]: 84 µM | bioavailability [7]: 57% | half-life [10]: 0.73 h | half-life [12]: 9.46 h | half-life [14]: 2.4 h | AUC(0-t) at 24 h [15]: 8610 ng·h/mL | clearance [18]: 30.5 mL/min/kg | IC50 [19]: 16 µM | Cmax [20]: 785 ng/mL | AUC(0-t) at 24 h [22]: 2930 ng·h/mL | Tmax [25]: 3.33 h | Cmax [26]: 860 ng/mL | Vd [30]: 2.86 L/kg
Structure (SMILES): C[C@H]1CC[C@@H](c2nc3cccc(Cl)c3c(=O)n2-c2cccnc2)N1c1nc(N)nc(N)c1C#N
Activity (SU-DHL-6 [2]): Active | Activity (DOHH-2 [4]): 17.6% | Activity (SU-DHL-6 [5]): 26.15% | Activity (SU-DHL-6 [6]): 18.1% | Ratio IC50 (Homo sapiens): 84 | Selectivity ratio [8]: 142 | Activity [9]: Active | Activity (DOHH-2 [11]): 20.4% | Selectivity ratio [13]: 107 | Activity (SU-DHL-6 [16]): Dde | viability at 1.5 µM (SU-DHL-6 [17]): 74.7% | Activity (SU-DHL-6 [21]): 0.18% | viability at 1.5 µM (SU-DHL-6 [23]): 47.1% | Activity (SU-DHL-6 [24]): 7.43% | Activity (DOHH-2 [27]): 53.16% | Activity (DOHH-2 [28]): 25.8% | Activity (SU-DHL-6 [29]): 17.7% | Activity (DOHH-2 [31]): 12.82%
